The target of series [1] is T1, farnesyl transferase (파네실 전달효소) (Rattus norvegicus, UniProt Q02293+Q04631).
T1 construct: Q 세파로즈 고속 칼럼(Q Sepharose Fast Flow column)을 이용하여 부분 정제한 것을 사용하였다; from tissue; host or cells: rat (Sprague Dawley, male) brain homogenate, partially purified on Q Sepharose Fast Flow
The experiment in a line: Farnesyl transferase inhibition, SPA with 3H-FPP and biotin-lamin B peptide. The following applies: 50% inhibitory concentration; room temperature, 30 min. Type of series: biochemical, rat (Sprague Dawley).

Another series is described as follows: Solubility. The class given is physicochemical.
Series [2] relates to colorectal cancer cells HCA-7 (대장암세포 HCA-7). The experiment in a line: WST-1 growth inhibition, HCA-7. Type of series: cell-based. The following applies: Homo sapiens, HCA-7, 48 h.
The subject of series [3] is breast cancer cells MDA-MB-231 (유방암세포 MDA-MB-231). The experiment in a line: WST-1 growth inhibition, MDA-MB-231. Type of series: cell-based. The following applies: Homo sapiens, MDA-MB-231, 48 h.
The test system of series [4] is lung cancer cells NCI-H23 (폐암세포 NCI-H23). The experiment in a line: WST-1 growth inhibition, NCI-H23. Type of series: cell-based. To be noted: Homo sapiens, NCI-H23, 48 h.
The test system of series [5] is lung cancer cells A549 (폐암세포 A549). The experiment in a line: WST-1 growth inhibition, A549. Type of series: cell-based. The following applies: Homo sapiens, A549, 48 h.
The test system of the next series is HEK293 (신장암세포 HEK293). The experiment in a line: WST-1 growth inhibition, HEK293. To be noted: Homo sapiens, HEK293, 48 h. Type of series: cell-based.
Series [6] deals with colorectal cancer cells HCT116 (대장암세포 HCT116). Briefly: WST-1 growth inhibition, HCT116. The class given is cell-based. The following applies: Homo sapiens, HCT-116, HCT116, 48 h.
Series [7] has as its system prostate cancer cells DU145 (전립선암세포 DU145). Briefly: WST-1 growth inhibition, DU145. The class given is cell-based. To be noted: Homo sapiens, DU-145, DU145, 48 h.
Series [8] has as its system colorectal cancer cells SW620 (대장암세포 SW620). Briefly: WST-1 growth inhibition, SW620. The class given is cell-based. The following applies: Homo sapiens, SW-620, SW620, 48 h.

Molecules are shown by their SMILES. ≈ marks a conversion by molar mass, not a printed value.

On to `COC1=C(OC)C(=O)C(=C(O)/C=C/c2ccccc2)C1=O` [Linderone, linderone], for which, in series [1], half-maximal inhibition (IC50) was put at 33.3 µM. Moreover, the solubility result is reported as “가용성” in the series “Solubility” (Alcohols, DMSO) and “불용성” in the series “Solubility” (Hexane, H2O).

On to `COC1=CC(=O)C(=C(/C=C/c2ccccc2)OC)C1=O` [Methyllucidone, methyllucidone], for which the GI50 in [2] was 0.39 µg/mL (≈ 1.44 µM); in series [3], 3.5 µg/mL (≈ 12.9 µM); in [4] it was 1 µg/mL (≈ 3.7 µM); in series [5], 15 µg/mL (≈ 55.5 µM); in the series with HEK293 (신장암세포 HEK293), 4.8 µg/mL (≈ 17.8 µM); in series [6] it was 0.26 µg/mL (≈ 0.962 µM). Moreover, the GI50 turned out to be 1.8 µg/mL (≈ 6.66 µM) in series [7] and 2 µg/mL (≈ 7.4 µM) in series [8]. Further, the IC50 in series [1] is 40.7 µM. The solubility entry in “Solubility” (Alcohols, DMSO) is “가용성”; in the series “Solubility” (Hexane, H2O), “불용성”.

For `COC1=CC(=O)C(=C(O)/C=C/c2ccccc2)C1=O` [Lucidone, lucidone], it took 125 µM to reach half-maximal inhibition in [1] (IC50). Further, the solubility result was “가용성” in “Solubility” (Alcohols, DMSO) and “불용성” in the series “Solubility” (Hexane, H2O).

Take `COC(/C=C/c1ccccc1)=C1C(=O)C(OC)=C(OC)C1=O` [Methyllinderone, methyllinderone]: the GI50 in series [2] is 0.52 µg/mL (≈ 1.73 µM); in [3], 3.8 µg/mL (≈ 12.7 µM); in series [4], 1.1 µg/mL (≈ 3.66 µM); in [5], 3.2 µg/mL (≈ 10.7 µM); in the series on HEK293 (신장암세포 HEK293) it was 3 µg/mL (≈ 9.99 µM); in [6], 0.45 µg/mL (≈ 1.5 µM). In series [8], this molecule returned a GI50 of 3.5 µg/mL (≈ 11.7 µM). In addition, the IC50 in series [1] stood at 43.3 µM. The solubility result in the series “Solubility” (Alcohols, DMSO) is listed as “가용성”; in the series “Solubility” (Hexane, H2O) it was “불용성”.

The values are drawn from patent publication KR20060104555A, “사이클로펜타디온 유도체를 포함하는 항암 조성물” (한국생명공학연구원, priority 2005, dated 2006).
